Where two headings read alike, the source gives them in different places.
How the values were obtained:
[1] = target: Full-length (FL)-PRMT5-MEP50 enzyme complex (Homo sapiens (Human), UniProt O14744); assay: PRMT5-MEP50 Enzyme Methylation Assay (SAMDI); type: biochemical; details: 0.5 nM PRMT5-MEP50, 75 nM biotinylated H4R3(Me1) peptide, 15 μM SAM, 150 minutes at 37° C.
Protocol: PRMT5-MEP50 Enzyme Methylation Assay
PRMT5/MEP50 biochemical assay is a direct measurement of the methylation activity of the enzyme complex on a short peptide substrate derived from the N-terminus of H4 histone. Methylation experiment is performed with recombinant protein. The assessment of inhibitory effect (IC50) of small molecules is measured by the effectiveness of the compounds to inhibit this reaction.
In this assay, the potency (IC50) of each compound was determined from a twenty-point (1:2 serial dilution; top compound concentration of 100000 nM) titration curve using the following outlined procedure. To each well of a white ProxiPlus 384 well-plate, 100 nL of compound (1% DMSO in final assay volume of 10 μL) was dispensed, followed by the addition of 8 μL of 1× assay buffer (50 mM Bicine pH 8.0, 1 mM DTT, 0.004% Tween20, 0.01% BSA) containing 0.5 nM of Full-length (FL)-PRMT5-MEP50 enzyme complex (recombinant proteins from baculovirus-transfected Sf21 cells: FL-PRMT5; MW=[…] and FL-MEP50; MW=38614). Plates were sealed and placed in a 37° C. humidified chamber for 30 minutes pre-incubation with compounds. Subsequently, each reaction was initiated by the addition of 2 μL 1× assay buffer containing 75 nM biotinylated H4R3(Me1) peptide, and 15 μM S-(5′-Adenosyl)-L-Methionine Chloride (SAM). The final reaction in each well of 10 μL consists of 0.5 nM PRMT5-MEP50,75 nM biotinylated-peptide, and 15 μM SAM. Methylation reactions were allowed to proceed for 150 minutes in a sealed plate at 37° C. Reactions were immediately quenched by the addition of 1 μL of 10% formic acid. Plates were then frozen and shipped to SAMDI™ Tech Inc. to determine the percent conversion from […]. IC50 values were determined by 7 parameters biphasic fit model plotting the percent product conversion vs. (Log10) compound concentrations.

[2] = system: PRMT5 (symmetric dimethylation of arginine (SDMA) in MCF-7 cells); assay: PRMT5 Cell Target Engagement (TE) Assay (SDMA, high content imaging); type: cell-based; details: Homo sapiens, MCF7, 72 h, treated for 3 days, top compound concentration of 10000 nM
Description: PRMT5 Cell Target Engagement (TE) Assay
The PRMT5 TE assay is a biomarker assay for identifying compounds that inhibit symmetric dimethylation of arginine (SDMA) of PRMT5 substrates. This assay detects symmetrically dimethylated nuclear proteins using high content imaging technology. Detection of the expression of symmetrically dimethylated nucleo proteins is through a mixture of primary rabbit monoclonal antibodies to SDMA (CST 13222), which in turn recognized by an Alexafluor 488 dye-conjugated anti-rabbit IgG secondary antibody. The IN Cell Analyzer 2200 measures nuclear Alexafluor 488 fluorescent dye intensity that is directly related to the level of expression of symmetrically dimethylated nuclear proteins at the single cell level. Nuclear AF488 dye intensities are compared to the mean value for DMSO treated cells […] to report percent of inhibition for each compound-treated well.
In this assay, the cell potency (EC50) of each compound was determined from a ten point (1:3 serial dilution; top compound concentration of 10000 nM) titration curve using the following outlined procedure. Each well of a BD falcon collagen coated black/clear bottom 384-well plate was seeded with 4000 MCF-7 cells and allowed to attach for 5 hours. Media from cell plate was removed at 0.5 mm above the bottom of the plate and replaced with 30 μL of fresh media containing 1.2× compounds in 0.1% DMSO. Cells were treated for 3 days in 37° C. CO2 incubator. On day 3, cells were fixed with Cytofix, permeabilized with 0.4% Triton-X-100/Cytofix, and washed with D-PBS without Ca/Mg. Cells were blocked with Licor Odessey blocking reagent for one hour at room temperature, followed by incubation with anti-SDMA (1:1000) antibody at 4° C. overnight. 1° antibody was removed, followed by three washings with DPBS without Ca/Mg and 0.05% Tween20. Hoechst (5 μg/ml), Cell Mask deep stain (1:2000) and Alexa488-conjugated goat anti-rabbit IgG (2 μg/mL) was added for 1 hour at room temperature. A final washing step (three washes) was performed before sealing plate for imaging on In Cell Analyzer 2200. Images from analyzer were uploaded to Columbus (at WP) for image analysis. IC50 values were determined by 4 parameters robust fit of percent fluorescence units vs. (Log10) compound concentrations.

[3] = target: Full-length PRMT5 enzyme co-expressed with His6-MEP50 (Homo sapiens (Human), UniProt O14744); assay: PRMT5 Biochemical Assay (Transcreener EPIGEN methyltransferase, fluorescence polarisation); details: histone H4 derived peptide substrate 1 μM, 1 μM S-Adenosyl methionine, 4 hours at 37 degree Celsius
Protocol: Compounds of the Invention may be Tested for In Vitro Activity in the Following Assay:
A histone H4 derived peptide is used as substrate (amino acid sequence: […]NH2). Full-length PRMT5 enzyme (NCBI Reference sequence NP_006100.2) was co-expressed with His6-MEP50 in insect cells and purified via Nickel immobilized metal affinity and gel filtration chromatography (“the enzyme”).
The 6 μL reactions are run in Greiner brand black 384-well low volume assay plates. All reactions contained assay buffer (phosphate buffered saline, 0.01% (v/v) Tween-20, 0.01% (w/v) albumin from chicken egg white, 1 mM Dithiothreitol, 1 μM peptide substrate, 1 μM S-Adenosyl methionine, and 15 ng/reaction enzyme, with the enzyme being omitted from negative control reactions. Compounds were added in a volume of 100 nL from dilution series prepared in DMSO, positive and negative control reactions receiving the same volume DMSO without compound. The plates were sealed with adhesive seals and incubated for 4 hours at 37 degree Celsius. Reaction progress was measured using the Transcreener™ EPIGEN methyltransferase assay (BellBrook Labs, Madison, Wis.) as recommended by the manufacturer. To each reaction 2 μL detection mix were added, containing coupling enzymes, fluorescence polarisation tracer, and AMP antibody. Plates were incubated for 90 minutes before being read on a Perkin Elmer EnVision™ plate reader in fluorescence polarisation mode. IC50 values were obtained from the raw readings by calculating percent inhibition (% I) for each reaction relative to controls on the same plate (% I=(I−CN)/(CP−CN) where CN/CP are the averages of the negative/positive reactions, respectively), then fitting the % I data vs. compound concentration [I] to % I=(A+((B−A)/(1+((C/[I])^D)))) where A is the lower asymptote, B is the upper asymptote, C is the IC50 value, and D is the slope.

[4] = system: PRMT5 (symmetrical dimethylation of arginine in TE11 cells); assay: PRMT5 Biomarker Assay (symmetrical dimethylation of arginine, Di-Methyl Histone H4 Arginine 3); type: cell-based; details: Homo sapiens, TE-11, 72 hours incubation, anti-Di-Methyl Histone H4 Arginine 3 antibody
Protocol: Compounds of the Invention may be Tested for Potency to Inhibit Symmetrical Dimethylation of Arginine in the Following Assay:
The cell line TE11 was seeded at a density of 6,000 cells per well in 96 well optical quality tissue culture plates in DME medium and 10% foetal bovine serum, and allowed to adhere for 5 hours under standard culture conditions (37 degree Celsius, 5% CO2). Compound dilutions prepared in DMSO were added to the medium, with negative control wells reserved for treatment with DMSO only and maximum inhibition controls receiving a potent PRMT5 inhibitor compound at 1 μM concentration. After incubation for 72 hours, the cells were fixed with 3.7% formaldehyde in PBS for 30 minutes at room temperature, washed with phosphate buffer saline and blocked with Odyssey blocking buffer (LI-COR, Lincoln, Nebr.). Rabbit anti-Di-Methyl Histone H4 Arginine 3 specific antibody (Epigentek) in Odyssey blocking buffer was added and incubated for 14 hours at 4 degree Celsius. After washing, anti-rabbit secondary antibody labelled with Alexa647 dye (LifeTechnologies) and Hoechst 33342 (1 μg/mL, SigmaAldrich) were added for 1 hour incubation. Plates were washed and read on a PerkinElmer Envision 2103 in fluorescence intensity scanning mode (24 scans across the well area). The plates were imaged on a PerkinElmer Phenix high content imaging platform. Using a Columbus image analysis pipeline, individual nuclei were located by Hoechst 33342 stain and the methylation level was calculated from the Alexa647-related intensity in the same area. IC50 values were obtained from the mean Alexa647-related intensity per cell by calculating percent inhibition (% I) for each well relative to controls on the same plate (% I=(I−CN)/(CP−CN) where CN/CP are the averages of the negative/maximum inhibition controls, respectively), then fitting the % I data vs. compound concentration [I] to % I=(A+((B−A)/(1+((C/[I])^D)))) where A is the lower asymptote, B is the upper asymptote, C is the IC50 value, and D is the slope.

[5] = first EC50 of biphasic fit, read-out: Enzyme Methylation Assay (EC50—1)
[6] = second EC50 of biphasic fit, read-out: Enzyme Methylation Assay (EC50—2)
[7] = Enzyme Methylation Assay (EC50—1, nM), first EC50 of biphasic fit

Full-length (FL)-PRMT5-MEP50 enzyme complex, sequence (O14744 whole entry): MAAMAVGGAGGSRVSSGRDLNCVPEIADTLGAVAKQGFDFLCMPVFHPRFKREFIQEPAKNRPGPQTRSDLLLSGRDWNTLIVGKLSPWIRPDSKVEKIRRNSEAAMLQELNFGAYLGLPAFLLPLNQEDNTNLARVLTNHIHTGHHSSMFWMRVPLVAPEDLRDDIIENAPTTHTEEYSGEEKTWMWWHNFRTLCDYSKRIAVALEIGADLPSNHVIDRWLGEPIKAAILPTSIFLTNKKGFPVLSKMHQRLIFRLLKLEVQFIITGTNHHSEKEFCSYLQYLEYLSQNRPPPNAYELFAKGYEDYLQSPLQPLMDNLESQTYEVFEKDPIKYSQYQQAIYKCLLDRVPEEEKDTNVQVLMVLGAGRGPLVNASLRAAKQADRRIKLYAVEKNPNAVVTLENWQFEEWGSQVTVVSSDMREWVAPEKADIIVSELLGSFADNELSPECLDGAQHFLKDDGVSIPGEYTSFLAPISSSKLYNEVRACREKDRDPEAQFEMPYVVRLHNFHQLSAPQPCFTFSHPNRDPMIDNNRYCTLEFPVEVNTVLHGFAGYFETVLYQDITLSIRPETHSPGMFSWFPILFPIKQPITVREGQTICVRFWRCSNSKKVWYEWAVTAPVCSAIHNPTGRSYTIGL
Full-length (FL)-PRMT5-MEP50 enzyme complex, sequence (Q9BQA1 whole entry partner): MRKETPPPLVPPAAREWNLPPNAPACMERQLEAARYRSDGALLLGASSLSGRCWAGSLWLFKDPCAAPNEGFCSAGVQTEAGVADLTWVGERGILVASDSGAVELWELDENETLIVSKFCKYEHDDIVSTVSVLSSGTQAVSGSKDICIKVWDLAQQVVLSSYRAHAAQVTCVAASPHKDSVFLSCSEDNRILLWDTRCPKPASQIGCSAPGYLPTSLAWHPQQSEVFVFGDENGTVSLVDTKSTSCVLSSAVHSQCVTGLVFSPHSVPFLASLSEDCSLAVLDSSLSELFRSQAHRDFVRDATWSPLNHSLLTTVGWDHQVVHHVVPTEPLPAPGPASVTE
Full-length PRMT5 enzyme co-expressed with His6-MEP50, sequence (O14744 whole entry): as the sequence (O14744 whole entry) above
Full-length PRMT5 enzyme co-expressed with His6-MEP50, sequence (Q9BQA1 whole entry partner): as the sequence (Q9BQA1 whole entry partner) above

Row | EC50 [1, 5] [nM] | EC50 [1, 6] [nM] | EC50 [2] [nM] | SMILES | EC50 [1, 7] [nM] | IC50 [3] [nM] | IC50 [4] [nM]
1 | 0.79 | 185 | 19 | COC(=O)N1CCC(Nc2cc(C(=O)NC[C@@H](O)[C@@H]3Cc4ccc(OC)cc4CN3)ccn2)CC1 [Example 18] |  |  | 
2 | 7 | 3700 | 846 | CCc1ccc2c(c1)CN[C@H]([C@H](O)CNC(=O)c1cc(NC3CCN(C(C)=O)CC3)ncn1)C2 [Example 16] |  |  | 
3 | 180 | 34900 | 10000 | CC(=O)N1CCC(Nc2cc(C(=O)NC[C@@H](O)[C@@H]3Cc4ccc(C#N)cc4CN3)ncn2)CC1 [Example 17] |  |  | 
4 | 21 | 8080 | 4660 | CCOc1ncccc1C(=O)NC[C@@H](O)[C@@H]1Cc2ccc(OC)cc2CN1 [Example 13] |  |  | 
5 | 32 | 11600 | 4640 | COc1ccc2c(c1)CN[C@H]([C@H](O)CNC(=O)c1cccnc1)C2 [Example 12] |  |  | 
6 | 2 | 890 | 2150 | CCOc1cc(-c2nnc(C)o2)ccc1C(=O)NC[C@@H](O)[C@@H]1Cc2ccc(OC)cc2CN1 [Example 5, 2-ethoxy-N-{(2R)-2-hydroxy-2-[(3S)-7-methoxy-1,2,3,4-tetrahydroisoquinolin-3-yl]ethyl}-4-(5-methyl-1,3,4-oxadiazol-2-yl)benzamide] |  |  | 
7 | 21 | 8430 |  | COc1ccc2c(c1)CN[C@H]([C@H](O)CNC(=O)c1cc(NC3COC3)ncn1)C2 [Example 4, N—((R)-2-hydroxy-2-((S)-7-methoxy-1,2,3,4-tetrahydroisoquinolin-3-yl)ethyl)-6-(oxetan-3-ylamino)pyrimidine-4-carboxamide] |  |  | 
8 | 0.56 | 334 | 70 | COc1ccc2c(c1)CN[C@H]([C@H](O)CNC(=O)c1ccc(-c3ncnn3C3CC3)cc1)C2 [Example 9] |  |  | 
9 | 23 | 7230 | 2190 | CC(=O)N1CCC(Nc2cc(C(=O)NC[C@@H](O)[C@@H]3Cc4ccc(C(F)(F)F)cc4CN3)ncn2)CC1 [Example 15] |  |  | 
10 | 2 | 781 | 203 | CCOc1cc(-c2nnc(C3CC3)o2)ccc1C(=O)NC[C@@H](O)[C@@H]1Cc2ccc(OC)cc2CN1 [Example 6, 4-(5-cyclopropyl-1,3,4-oxadiazol-2-yl)-2-ethoxy-N-{(2R)-2-hydroxy-2-[(3S)-7-methoxy-1,2,3,4-tetrahydroisoquinolin-3-yl]ethyl}benzamide] |  |  | 
11 | 12 | 4280 | 3200 | COc1ccc2c(c1)CN[C@H]([C@H](O)CNC(=O)c1ccccc1Cl)C2 [Example 14] |  |  | 
12 | 0.62 | 225 | 80 | COc1ccc2c(c1)CN[C@H]([C@H](O)CNC(=O)c1ccc(-c3ncc4n3CCCC4)cc1)C2 [Example 8] |  |  | 
13 | 3 | 994 | 167 | COc1ccc2c(c1)CN[C@H]([C@H](O)CNC(=O)c1ccc(-c3nnc(C(C)(C)C)o3)cc1)C2 [Example 7] |  |  | 

Row | SMILES | EC50 [1, 5] [nM] | EC50 [1, 6] [nM] | EC50 [2] [nM] | EC50 [1, 7] [nM] | IC50 [3] [nM] | IC50 [4] [nM]
14 | O=C(NC[C@@H](O)[C@@H]1Cc2ccc(C(F)F)cc2CN1)c1ccc(C(=O)N2C3CCC2COC3)cc1 [Example 11] |  | 451 | 135 | 0.93 |  | 
15 | CCOc1cc(C(=O)N2C3CCC2COC3)ccc1C(=O)NC[C@@H](O)[C@@H]1Cc2ccccc2CN1C [Example 3, 4-(3-Oxa-8-azabicyclo[3.2.1]octane-8-carbonyl)-2-ethoxy-N—((R)-2-hydroxy-2-((S)-2-methyl-1,2,3,4-tetrahydroisoquinolin-3-yl)ethyl)benzamide 2,2,2-trifluoroacetate] |  | 574 | 5440 | 47 | 1010 | 7.12
